Data taken from patent US9630977B2, “Cephalosporin derivatives and pharmaceutical compositions thereof” (Legochem Biosciences, Inc., priority 2011, dated 2017).
Converted amounts (≈) assume the structure as drawn.

Each compound was assayed on A. baumannii 46 (assay: In vitro antibacterial activity test (broth microdilution)). Conditions: Acinetobacter baumannii; A. baumannii 46; read-out: MIC90.
Format: cell-based
Protocol: (§1) To evaluate antibacterial activity of each of the compounds of Examples 1 to 68, in vitro antibacterial activity test was performed.
(§2) The in vitro antibacterial activity was evaluated by measuring MIC90 (ug/mL) of each of the compounds of Examples 1 to 68, which is defined as the lowest concentration of an antibiotic that will inhibit the visible growth of 90% of microorganisms after incubation as compared with a control group to which the antibiotic is not treated. MIC90 values were measured by the broth microdilution method developed by the Clinical and Laboratory Standards Institute (CLSI) (see CLSI M7-A5, Methods for Dilution Antimicrobial Susceptibility Test for Bacteria that Grow Aerobically-Fifth Edition (2000): CLSI, Villanova, Pa.).
(§3) In vitro antibacterial activity was measured with respect to the following 19 clinical isolates: M. catarrhalis; P. aeruginosa (5 strains); K. pneumoniae (6 strains); A. baumannii (3 strains); E. coli (2 strains); A. calcoaceticus; and E. cloacae.
(§4) Test compounds each (the cephalosporin derivative compounds prepared in Examples 1 to 68) were dissolved in DMSO at the concentration of 10,240 ug/mL, were diluted by two fold with DMSO, and then were diluted by twenty fold with sterilized distilled water. The final concentration in the antibacterial activity test was in the range of […] to 128 ug/mL, and the final concentration of DMSO used as an adjuvant was 2.5% (V/V).
`CC(C)(O/N=C(\C(=O)N[C@@H]1C(=O)N2C(C(=O)[O-])=C(C[n+]3cnc(N)c(NCCNC(=O)c4cc(=O)c(O)cn4O)c3)CSC12)c1nsc(N)n1)C(=O)O` (stereo partly shown) [Compound 16] was tested, and the MIC90 was 2 µg/mL (≈ 2.58 µM).

What follows are compounds tested on A. baumannii 49 in the same assay as above. Conditions: Acinetobacter baumannii; A. baumannii 49; read-out: MIC90.
Format: cell-based
Protocol: as §1, §2, §3, §4
`CC(C)(O/N=C(\C(=O)N[C@@H]1C(=O)N2C(C(=O)[O-])=C(C[n+]3cnc(N)c(NCCNC(=O)c4cc(=O)c(O)cn4O)c3)CSC12)c1nsc(N)n1)C(=O)O` (stereo partly shown) [Compound 16] was tested, and the MIC90 was > 128 µg/mL.

The compounds below were run on A. baumannii 52 in the same assay as above. Conditions: Acinetobacter baumannii; A. baumannii 52; read-out: MIC90.
Format: cell-based
Protocol: as §1, §2, §3, §4
With `CC(C)(O/N=C(\C(=O)N[C@@H]1C(=O)N2C(C(=O)[O-])=C(C[n+]3cnc(N)c(NCCNC(=O)c4cc(=O)c(O)cn4O)c3)CSC12)c1nsc(N)n1)C(=O)O` (stereo partly shown) [Compound 16] the MIC90 was 32 µg/mL (≈ 41.3 µM).

The compounds below were run on A. calcoaceticus ATCC15473 in the same assay as above. Conditions: Acinetobacter calcoaceticus; A. calcoaceticus ATCC15473; read-out: MIC90.
Format: cell-based
Protocol: as §1, §2, §3, §4
`CC(C)(O/N=C(\C(=O)N[C@@H]1C(=O)N2C(C(=O)[O-])=C(C[n+]3cnc(N)c(NCCNC(=O)c4cc(=O)c(O)cn4O)c3)CSC12)c1nsc(N)n1)C(=O)O` (stereo partly shown) [Compound 16] gave an MIC90 of 0.25 µg/mL (≈ 0.323 µM).

What follows are compounds tested on E. cloacae β19 in the same assay as above. Conditions: Enterobacter cloacae, read-out: MIC90.
Format: cell-based
Protocol: as §1, §2, §3, §4
Compound `CC(C)(O/N=C(\C(=O)N[C@@H]1C(=O)N2C(C(=O)[O-])=C(C[n+]3cnc(N)c(NCCNC(=O)c4cc(=O)c(O)cn4O)c3)CSC12)c1nsc(N)n1)C(=O)O` (stereo partly shown) [Compound 16] has an MIC90 of 16 µg/mL (≈ 20.7 µM).

The compounds below were run on E. coli AG100 in the same assay as above. Conditions: Escherichia coli, AG100, E. coli AG100; read-out: MIC90.
Format: cell-based
Protocol: as §1, §2, §3, §4
For `CC(C)(O/N=C(\C(=O)N[C@@H]1C(=O)N2C(C(=O)[O-])=C(C[n+]3cnc(N)c(NCCNC(=O)c4cc(=O)c(O)cn4O)c3)CSC12)c1nsc(N)n1)C(=O)O` (stereo partly shown) [Compound 16], the MIC90 was 1 µg/mL (≈ 1.29 µM).

These compounds were tested on E. coli β4 in the same assay as above. Conditions: Escherichia coli, read-out: MIC90.
Format: cell-based
Protocol: as §1, §2, §3, §4
`CC(C)(O/N=C(\C(=O)N[C@@H]1C(=O)N2C(C(=O)[O-])=C(C[n+]3cnc(N)c(NCCNC(=O)c4cc(=O)c(O)cn4O)c3)CSC12)c1nsc(N)n1)C(=O)O` (stereo partly shown) [Compound 16] gave an MIC90 of 4 µg/mL (≈ 5.16 µM).

What follows are compounds tested on K. pneumoniae 2011E in the same assay as above. Conditions: Klebsiella pneumoniae, 2011E, K. pneumoniae 2011E; read-out: MIC90.
Format: cell-based
Protocol: as §1, §2, §3, §4
`CC(C)(O/N=C(\C(=O)N[C@@H]1C(=O)N2C(C(=O)[O-])=C(C[n+]3cnc(N)c(NCCNC(=O)c4cc(=O)c(O)cn4O)c3)CSC12)c1nsc(N)n1)C(=O)O` (stereo partly shown) [Compound 16] gave an MIC90 of 8 µg/mL (≈ 10.3 µM).

The compounds below were run on K. pneumoniae β10 in the same assay as above. Conditions: Klebsiella pneumoniae; K. pneumoniae β10; read-out: MIC90.
Format: cell-based
Protocol: as §1, §2, §3, §4
`CC(C)(O/N=C(\C(=O)N[C@@H]1C(=O)N2C(C(=O)[O-])=C(C[n+]3cnc(N)c(NCCNC(=O)c4cc(=O)c(O)cn4O)c3)CSC12)c1nsc(N)n1)C(=O)O` (stereo partly shown) [Compound 16] gave an MIC90 of 2 µg/mL (≈ 2.58 µM).

What follows are compounds tested on K. pneumoniae β11 in the same assay as above. Conditions: Klebsiella pneumoniae; K. pneumoniae β11; read-out: MIC90.
Format: cell-based
Protocol: as §1, §2, §3, §4
With `CC(C)(O/N=C(\C(=O)N[C@@H]1C(=O)N2C(C(=O)[O-])=C(C[n+]3cnc(N)c(NCCNC(=O)c4cc(=O)c(O)cn4O)c3)CSC12)c1nsc(N)n1)C(=O)O` (stereo partly shown) [Compound 16] the MIC90 was > 128 µg/mL.

These compounds were tested on K. pneumoniae β13 in the same assay as above. Conditions: Klebsiella pneumoniae, K. pneumoniae β13; read-out: MIC90.
Format: cell-based
Protocol: as §1, §2, §3, §4
With `CC(C)(O/N=C(\C(=O)N[C@@H]1C(=O)N2C(C(=O)[O-])=C(C[n+]3cnc(N)c(NCCNC(=O)c4cc(=O)c(O)cn4O)c3)CSC12)c1nsc(N)n1)C(=O)O` (stereo partly shown) [Compound 16] the MIC90 was 32 µg/mL (≈ 41.3 µM).

Each compound was assayed on K. pneumoniae β14 in the same assay as above. Conditions: Klebsiella pneumoniae, read-out: MIC90.
Format: cell-based
Protocol: as §1, §2, §3, §4
In the case of `CC(C)(O/N=C(\C(=O)N[C@@H]1C(=O)N2C(C(=O)[O-])=C(C[n+]3cnc(N)c(NCCNC(=O)c4cc(=O)c(O)cn4O)c3)CSC12)c1nsc(N)n1)C(=O)O` (stereo partly shown) [Compound 16], the MIC90 was 128 µg/mL (≈ 165 µM).

These compounds were tested on K. pneumoniae β9 in the same assay as above. Conditions: Klebsiella pneumoniae, K. pneumoniae β9; read-out: MIC90.
Format: cell-based
Protocol: as §1, §2, §3, §4
`CC(C)(O/N=C(\C(=O)N[C@@H]1C(=O)N2C(C(=O)[O-])=C(C[n+]3cnc(N)c(NCCNC(=O)c4cc(=O)c(O)cn4O)c3)CSC12)c1nsc(N)n1)C(=O)O` (stereo partly shown) [Compound 16] gave an MIC90 of 128 µg/mL (≈ 165 µM).

These compounds were tested on M. catarrhalis 2524 in the same assay as above. Conditions: Moraxella catarrhalis; M. catarrhalis 2524; read-out: MIC90.
Format: cell-based
Protocol: as §1, §2, §3, §4
Compound `CC(C)(O/N=C(\C(=O)N[C@@H]1C(=O)N2C(C(=O)[O-])=C(C[n+]3cnc(N)c(NCCNC(=O)c4cc(=O)c(O)cn4O)c3)CSC12)c1nsc(N)n1)C(=O)O` (stereo partly shown) [Compound 16] has an MIC90 of 1 µg/mL (≈ 1.29 µM).

What follows are compounds tested on P. aeruginosa 1912E in the same assay as above. Conditions: Pseudomonas aeruginosa, 1912E, read-out: MIC90.
Format: cell-based
Protocol: as §1, §2, §3, §4
Work on `CC(C)(O/N=C(\C(=O)N[C@@H]1C(=O)N2C(C(=O)[O-])=C(C[n+]3cnc(N)c(NCCNC(=O)c4cc(=O)c(O)cn4O)c3)CSC12)c1nsc(N)n1)C(=O)O` (stereo partly shown) [Compound 16] yielded an MIC90 of 1 µg/mL (≈ 1.29 µM).

What follows are compounds tested on P. aeruginosa 37 in the same assay as above. Conditions: Pseudomonas aeruginosa, 37, P. aeruginosa 37; read-out: MIC90.
Format: cell-based
Protocol: as §1, §2, §3, §4
Work on `CC(C)(O/N=C(\C(=O)N[C@@H]1C(=O)N2C(C(=O)[O-])=C(C[n+]3cnc(N)c(NCCNC(=O)c4cc(=O)c(O)cn4O)c3)CSC12)c1nsc(N)n1)C(=O)O` (stereo partly shown) [Compound 16] yielded an MIC90 of 0.5 µg/mL (≈ 0.645 µM).

The compounds below were run on P. aeruginosa 40 in the same assay as above. Conditions: Pseudomonas aeruginosa, 40, P. aeruginosa 40; read-out: MIC90.
Format: cell-based
Protocol: as §1, §2, §3, §4
For `CC(C)(O/N=C(\C(=O)N[C@@H]1C(=O)N2C(C(=O)[O-])=C(C[n+]3cnc(N)c(NCCNC(=O)c4cc(=O)c(O)cn4O)c3)CSC12)c1nsc(N)n1)C(=O)O` (stereo partly shown) [Compound 16], the MIC90 was 0.25 µg/mL (≈ 0.323 µM).

What follows are compounds tested on P. aeruginosa 43 in the same assay as above. Conditions: Pseudomonas aeruginosa; P. aeruginosa 43; read-out: MIC90.
Format: cell-based
Protocol: as §1, §2, §3, §4
`CC(C)(O/N=C(\C(=O)N[C@@H]1C(=O)N2C(C(=O)[O-])=C(C[n+]3cnc(N)c(NCCNC(=O)c4cc(=O)c(O)cn4O)c3)CSC12)c1nsc(N)n1)C(=O)O` (stereo partly shown) [Compound 16] showed an MIC90 of 2 µg/mL (≈ 2.58 µM).

These compounds were tested on P. aeruginosa 6065Y in the same assay as above. Conditions: Pseudomonas aeruginosa, read-out: MIC90.
Format: cell-based
Protocol: as §1, §2, §3, §4
With `CC(C)(O/N=C(\C(=O)N[C@@H]1C(=O)N2C(C(=O)[O-])=C(C[n+]3cnc(N)c(NCCNC(=O)c4cc(=O)c(O)cn4O)c3)CSC12)c1nsc(N)n1)C(=O)O` (stereo partly shown) [Compound 16] the MIC90 was 2 µg/mL (≈ 2.58 µM).
